Assays:
[1] = molecular target: rhesus monkey bombesin receptor subtype-3 (rhesus monkey) (UniProt Q6H2Y3); assay: cell-based or functional assay
[2] = test system: all three human bombesin receptor subtypes; conditions: literature statement, Pradhan et al., Eur. J. Pharmacol. 343: 275-87 (1998); cited from earlier work
[3] = test system: rhesus monkey BRS3 receptor; assay: Functional expression of rhesus monkey BRS3 in aequorin-expressing reporter cell line 293-AEQ17 (luminescence, fractional response); type: cell-based; conditions: 293-AEQ17 cells transfected with rhesus monkey BRS3 plasmid, aequorin light emission, read-out: EC50 value for activation of the rhesus monkey BRS3 receptor
Description: Measurement of rhesus monkey BRS3 receptor expression in the aequorin-expressing stable reporter cell line 293-AEQ17 (Button et al., 1993. Cell Calcium 14: 663-671) was performed using a Luminoskan RT luminometer (Labsystems Inc., Gaithersburg, Md.) controlled by custom software written for a Macintosh PowerPC 6100. 293-AEQ17 cells (8×10^5 cells plated 18 hours before transfection in a T75 flask) were transfected with 22 μg of rhesus monkey BRS3 receptor plasmid DNA: 264 μg lipofectamine.
Following approximately 40 hours of expression, the apo-aequorin in the cells was charged for 4 hours with coelenterazine (10 μM) under reducing conditions (300 μM reduced glutathione) in ECB buffer (140 mM NaCl, 20 mM KCl, 20 mM HEPES-NaOH [pH=7.4], 5 MM glucose, 1 mM MgCl2, 1 mM CaCl2, 0.1 mg/ml bovine serum albumin). The cells were harvested, washed once in ECB medium and resuspended to 500,000 cells/ml. 100 μl of cell suspension (corresponding to 5×10^4 cells) was then injected into the test plate containing the BRS3 agonist peptide D-Tyr6-betaAla11-Phe13-Nle14]bombesin6-14, and the integrated light emission was recorded over 30 seconds, in 0.5-second units. 20 μL of lysis buffer (0.1% final Triton X-100 concentration) was then injected and the integrated light emission recorded over 10 seconds, in 0.5-second units. […]

rhesus monkey bombesin receptor subtype-3 (rhesus monkey), sequence (Q6H2Y3 whole entry): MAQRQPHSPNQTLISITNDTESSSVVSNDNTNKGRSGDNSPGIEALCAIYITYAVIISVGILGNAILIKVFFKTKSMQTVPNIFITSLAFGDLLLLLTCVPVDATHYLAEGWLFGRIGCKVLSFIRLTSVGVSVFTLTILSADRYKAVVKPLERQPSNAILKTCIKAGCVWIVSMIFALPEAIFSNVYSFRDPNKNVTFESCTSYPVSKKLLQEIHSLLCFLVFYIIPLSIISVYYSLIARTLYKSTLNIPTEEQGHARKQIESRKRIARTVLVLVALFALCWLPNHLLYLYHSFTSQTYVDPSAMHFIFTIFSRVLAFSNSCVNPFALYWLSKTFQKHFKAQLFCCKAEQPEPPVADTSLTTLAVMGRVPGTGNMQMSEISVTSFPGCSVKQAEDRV
rhesus monkey BRS3 receptor, sequence (as listed by the source): as the sequence (Q6H2Y3 whole entry) above

| EC50 value for activation (aequorin luminescence, fractional response, in transfected 293-AEQ17 cells) [1] [nM] | Substance | affinity for all three human bombesin receptor subtypes [2] | EC50 [3] [nM] |
| --- | --- | --- | --- |
| 10 | [D-Tyr6-betaAla11-Phe13-Nle14]bombesin(6-14) (peptide) | – | – |
| – | [D-Tyr6-betaAlal 11-Phe13-Nle14] bombesin(6-14) [dYB] | high affinity | 10 |
